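1) Cells in 96-well plates. 2) Compound, 48 h, 5 concentrations. 3) Linear interpolation between surrounding doses. 4) Unreached endpoint = highest concentration. TGI marks complete inhibition of growth.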
How the values were obtained:
Assay in all cases: growth of human tumour cells (NCI), 48 h
NCI-H23 lung = test system: NCI-H23 lung
DU-145 prostate = test system: DU-145 prostate
HT29 colon = test system: HT29 colon
MOLT-4 leukemia = test system: MOLT-4 leukemia
NCI/ADR-RES ovarian = test system: NCI/ADR-RES ovarian
M14 melanoma = test system: M14 melanoma
SR leukemia = test system: SR leukemia
MDA-N = test system: MDA-N
SK-MEL-2 melanoma = test system: SK-MEL-2 melanoma
OVCAR-3 ovarian = test system: OVCAR-3 ovarian
KM12 colon = test system: KM12 colon
RPMI-8226 leukemia = test system: RPMI-8226 leukemia
HOP-92 NSCLC = test system: HOP-92 NSCLC
MDA-MB-231 breast = test system: MDA-MB-231 breast
COLO 205 colon = test system: COLO 205 colon
OVCAR-5 ovarian = test system: OVCAR-5 ovarian
UO-31 renal = test system: UO-31 renal
CCRF-CEM leukemia = test system: CCRF-CEM leukemia
ACHN renal = test system: ACHN renal
SN12C renal = test system: SN12C renal
SNB-19 CNS = test system: SNB-19 CNS
SF-539 CNS = test system: SF-539 CNS
K-562 leukemia = test system: K-562 leukemia
HL-60(TB) leukemia = test system: HL-60(TB) leukemia
BT-549 breast = test system: BT-549 breast
SK-MEL-28 melanoma = test system: SK-MEL-28 melanoma
RXF 393 renal = test system: RXF 393 renal
SF-268 CNS = test system: SF-268 CNS
NCI-H460 lung = test system: NCI-H460 lung
HCC-2998 colon = test system: HCC-2998 colon
SF-295 CNS = test system: SF-295 CNS
UACC-62 melanoma = test system: UACC-62 melanoma
HCT-116 colon = test system: HCT-116 colon
PC-3 prostate = test system: PC-3 prostate
786-0 renal = test system: 786-0 renal
MDA-MB-435 = test system: MDA-MB-435
EKVX NSCLC = test system: EKVX NSCLC
T-47D breast = test system: T-47D breast
MCF7 breast = test system: MCF7 breast
HS 578T breast = test system: HS 578T breast
IGROV1 ovarian = test system: IGROV1 ovarian
UACC-257 melanoma = test system: UACC-257 melanoma
OVCAR-8 ovarian = test system: OVCAR-8 ovarian
HCT-15 colon = test system: HCT-15 colon
NCI-H522 lung = test system: NCI-H522 lung
A549 NSCLC = test system: A549 NSCLC
CAKI-1 renal = test system: CAKI-1 renal
SW-620 colon = test system: SW-620 colon
TK-10 renal = test system: TK-10 renal
SK-MEL-5 melanoma = test system: SK-MEL-5 melanoma
MALME-3M melanoma = test system: MALME-3M melanoma
A498 renal = test system: A498 renal
LOX IMVI melanoma = test system: LOX IMVI melanoma
OVCAR-4 ovarian = test system: OVCAR-4 ovarian
U251 CNS = test system: U251 CNS
HOP-62 NSCLC = test system: HOP-62 NSCLC
SNB-75 CNS = test system: SNB-75 CNS

Measured: TGI

CC1=NN(C(=O)CC(=O)Nc2ccccc2C)C(=O)C1N=Nc1ccc(C(=O)O)cc1 (configuration not stated)
> 100 µM: NCI-H23 lung | DU-145 prostate | HT29 colon | MOLT-4 leukemia | NCI/ADR-RES ovarian | M14 melanoma | SR leukemia | MDA-N | SK-MEL-2 melanoma | OVCAR-3 ovarian | KM12 colon | RPMI-8226 leukemia | HOP-92 NSCLC | MDA-MB-231 breast | COLO 205 colon | OVCAR-5 ovarian | UO-31 renal | CCRF-CEM leukemia | ACHN renal | SN12C renal | SNB-19 CNS | SF-539 CNS | K-562 leukemia | HL-60(TB) leukemia | BT-549 breast | SK-MEL-28 melanoma | RXF 393 renal | SF-268 CNS | NCI-H460 lung | HCC-2998 colon | SF-295 CNS | UACC-62 melanoma | HCT-116 colon | PC-3 prostate | 786-0 renal | MDA-MB-435 | EKVX NSCLC | T-47D breast | MCF7 breast | HS 578T breast | IGROV1 ovarian | UACC-257 melanoma | OVCAR-8 ovarian | HCT-15 colon | NCI-H522 lung | A549 NSCLC | CAKI-1 renal | SW-620 colon | TK-10 renal | SK-MEL-5 melanoma | MALME-3M melanoma | A498 renal | LOX IMVI melanoma | OVCAR-4 ovarian | U251 CNS | HOP-62 NSCLC | SNB-75 CNS

Reference: PubChem BioAssay (NCI)
